The target in this assay is Acetylcholinesterase (Torpedo californica, UniProt P04058).
Chain of Acetylcholinesterase (P04058 whole entry): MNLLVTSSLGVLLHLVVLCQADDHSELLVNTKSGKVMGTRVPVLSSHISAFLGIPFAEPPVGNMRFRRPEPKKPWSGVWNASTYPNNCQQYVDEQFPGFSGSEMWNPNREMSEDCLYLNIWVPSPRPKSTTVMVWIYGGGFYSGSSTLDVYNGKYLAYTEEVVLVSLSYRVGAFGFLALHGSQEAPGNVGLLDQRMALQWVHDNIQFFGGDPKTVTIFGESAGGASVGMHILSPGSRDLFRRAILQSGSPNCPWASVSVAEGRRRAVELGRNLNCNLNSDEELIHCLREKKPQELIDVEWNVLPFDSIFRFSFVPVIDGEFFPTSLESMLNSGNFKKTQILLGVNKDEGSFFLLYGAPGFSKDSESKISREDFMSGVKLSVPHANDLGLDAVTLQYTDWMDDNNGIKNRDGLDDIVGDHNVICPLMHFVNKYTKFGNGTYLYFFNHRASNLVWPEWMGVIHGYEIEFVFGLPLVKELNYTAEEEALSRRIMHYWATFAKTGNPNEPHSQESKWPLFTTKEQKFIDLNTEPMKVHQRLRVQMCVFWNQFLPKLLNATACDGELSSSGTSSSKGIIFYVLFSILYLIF
Description: Inhibition of activity against Torpedo Ray acetylcholinesterase.
By IC50 is commonly meant the concentration that inhibits the measured activity by half. Read a low IC50 as inhibition by little substance. With `OC(O)(CCCCCNc1c2c(nc3cccc(Cl)c13)CCCCC2)C(F)(F)F`, half-maximal inhibition (IC50) was put at 36 nM.

For the compound `Cc1nc2cccc(F)c2c(N)c1CNC1(C(F)(F)F)CCC(=O)O1` (stereo unspecified), half-maximal inhibition (IC50) required 14000 nM.

On to `Cc1nc2ccccc2c(N)c1COCc1cccc(C(=O)C(F)(F)F)c1`, for which the IC50 was 3 nM.

`O=C(c1ccc(CNc2c3c(nc4cccc(Cl)c24)CCCCC3)s1)C(F)(F)F` displayed a half-maximal inhibitory concentration (IC50) of 12 nM.

For `Nc1c2c(nc3cccc(Cl)c13)CCCCC2`, the concentration for half-maximal inhibition (IC50) worked out at 2.4 nM.

`Cc1nc2cccc(Cl)c2c(N)c1CNC1(C(F)(F)F)CCC(=O)O1` (stereo unspecified) yielded a 50% inhibitory concentration (IC50) of 7200 nM.

Regarding `Cc1nc2cccc(F)c2c(N)c1CSCc1cccc(C(=O)C(F)(F)F)c1`, half-maximal inhibition (IC50) was put at 3 nM.

`Cc1nc2cccc(Cl)c2c(N)c1COCc1cccc(C(=O)C(F)(F)F)c1` yielded an IC50 of 5.1 nM.

`CCOC(=O)c1c(C)nc2cccc(F)c2c1N` registered a half-inhibitory concentration (IC50) of 2600 nM.

`Cc1nc2cccc(F)c2c(N)c1CSC1(C(F)(F)F)CCCO1` (stereo unspecified) came in with a half-maximal inhibitory concentration (IC50) of 18 nM.

Compound `Cc1nc2cccc(F)c2c(N)c1CN` gave a concentration for half-maximal inhibition (IC50) of 1900 nM.

For `Cc1nc2cccc(F)c2c(N)c1CSCc1cccc(C(O)C(F)(F)F)c1` (stereo unspecified), the IC50 amounted to 11000 nM.

On to `Cc1nc2cccc(F)c2c(N)c1COCc1cccc(C(=O)C(F)(F)F)c1`, for which the IC50 came to 3.8 nM.

Take `CC(=O)c1cccc(CSCc2c(C)nc3cccc(F)c3c2N)c1`: the half-inhibitory concentration (IC50) was determined as 15000 nM.

Compound `O=C(c1cccc(CBr)c1)C(F)(F)F` yielded a concentration for half-maximal inhibition (IC50) of 360 nM.

For the compound `Cc1nc2cccc(F)c2c(N)c1COCc1ccccc1`, the half-maximal inhibitory concentration (IC50) was determined as 2000 nM.

The values above are taken from ChEMBL document CHEMBL1134612, “A structure-based design approach to the development of novel, reversible AChE inhibitors” (J Med Chem, 2001).
